Test results as given in patent US6602906B1 (priority 2002, dated 2003).
Like-named read-outs stand apart in the source and are kept apart here. Blank lines part the entries; values can stand above or below the compound they belong to.

Legend:
[1] = Storage stability of the 5.0 wt % topical solution; type: physicochemical
Procedure: For topical use, a homogeneous solution in accordance with the present invention containing 5.0 wt % 5,6-O-isopropylidene L-ascorbic acid was prepared by mixing the ingredients shown in TABLE 1. The ingredients were added in the order given and in the given amounts. The solution was prepared in a glass container with continuous stirring. After the addition of the zinc sulfate, and again after the addition of the glycerin, the solution was heated to approximately 60° C. The heating increased the solubility of the 2-phenoxyethanol and of the 5,6-O-isopropylidene L-ascorbic acid. The solution was then filtered through a fine plastic mesh, yielding a clear, colorless to very pale yellow liquid. The 5,6-O-isopropylidene L-ascorbic acid in this solution will retain its potency for approximately six months if the solution is stored at room temperature in a bottle that is impervious to ultraviolet light. In darkness at 10° C., 5,6-O-isopropylidene L-ascorbic acid in solution will remain stable and potent for approximately 18 months.

inflamed skin = inflamed skin treated with acetone; cited from earlier work
[2] = in the human; cited from earlier work
skin of humans = conditions: topical application; cited from earlier work
mouse skin = conditions: topical application, (hairless) mice; cited from earlier work
[3] = neutral pH; cited from earlier work
[4] = 20 wt %, pH 2.0; cited from earlier work
pig skin = conditions: applied topically prior to UVB; cited from earlier work
human skin = conditions: applied topically prior to UVB; cited from earlier work
mice = conditions: topical; cited from earlier work
[5] = cited from earlier work

- time the compound in solution retains its potency ([1]; 5.0 wt % solution of TABLE 1, room temperature, bottle impervious to ultraviolet light): approximately six
- time the compound in solution remains stable and potent ([1]; solution, in darkness at 10° C.): approximately 18 months
Compound: CC1(C)OC[C@@H]([C@H]2OC(=O)C(O)=C2O)O1 [5,6-O-isopropylidene L-ascorbic acid]

Compound: CC(C)=O [acetone]
- erythema and edema (inflamed skin): diminished
- presence of mononuclear cells (indicator of inflammation) (inflamed skin): significant decrease

Compound: O=C1O[C@H]([C@@H](O)CO)C(O)=C1O [ascorbic acid]
- half-life [2]: about 20 days
- photoaging changes in the skin (skin of humans): decreased
- photoaging changes / protection against photoaging in mouse skin (mouse skin): decreased
- stability in aqueous solutions [3]: very unstable
- skin irritation [4]: highly irritating to the skin
- erythema and sunburn after UVB irradiation (pig skin): erythema and sunburn were prevented
- erythema and sunburn after UVB irradiation (human skin): erythema and sunburn were prevented
- protection against UV-induced immunosuppression and tolerance to contact antigen (mice): protect against UV-induced immunosuppression

Compound: CCCCCCCCCCCCCCCC(=O)OC[C@H](O)[C@H]1OC(=O)C(O)=C1O [ascorbyl-6-palmitate, Ascorbyl-6-palmitate]
- photoaging changes / protection against photoaging in mouse skin (mouse skin): failed to demonstrate protection against photoaging
- skin levels of ascorbic acid ([5]; topical serum containing 10 wt %): no significant increase

Compound: O=C1O[C@H]([C@@H](O)CO)C([O-])=C1OP(=O)([O-])[O-].O=C1O[C@H]([C@@H](O)CO)C([O-])=C1OP(=O)([O-])[O-].[Mg+2].[Mg+2].[Mg+2] [magnesium ascorbyl 2-phosphate]
- skin levels of ascorbic acid ([5]; topical serum containing 13 wt %): failed to increase skin levels of ascorbic acid
